Measured values from US9663551B2, “Solanidine-derived compounds” (priority 2013, dated 2017).
“And” between values parts separate entries of the source, which are not always exact repeats. Identical values can stand only once.

How the values were obtained:
Assay type in all cases: in vivo
[1] = test system: Macrosiphum euphorbiae larvae; assay: Effects on larval survival (artificial medium feeding); conditions: for Percentage of larval survival: after 16 days of treatment; for aphicide activity on larvae compared with 0.2 mM solanidine: 0.002 mM; for aphicide properties with respect to larvae compared with solanidine: 0.02 mM
Method: (§1) The Macrosiphum euphorbiae population was initiated from an apterous female provided by the Laboratory of Functional Biology, Insects and Interactions of the INRA/INSA of Villeurbanne in 2004. She was captured in 1995 on an eggplant in the Rhone-Alps region. The Macrosiphum euphorbiae aphids were raised on Desiree variety potato plants indoors at 20±1° C., 60±5% relative humidity and under a photoperiod of 16 hours of light and 8 hours of darkness.
For the tests on Macrosiphum euphorbiae larvae, adults were isolated and placed in PVC cages on artificial medium for one day in order to synchronize their lineage. Neonates (40 per experiment), less than 24 hours old, are placed in PVC cages containing artificial medium alone (control experiment) or artificial medium supplemented with 0.002, 0.02 or 0.2 mM active compound.
(§2) The individuals were monitored every two days over a period of 16 days. With each recording, the artificial medium is changed. Each cage houses five aphids.
(§3) A standard diet was used as the basis for carrying out the physiological monitoring. Its composition was described by Febvay et al. (J. Zool. 1988, 66(11), 2449-2453) and then modified according to the conditions of Down et al. (J. Insect Physiol. 1996, 42(11-12), 1035-1045) as shown in Table 2. The medium is supplemented with active compound and placed between two layers of Parafilm® in sterile conditions.
(§4) The statistical analyses were performed using the Statistica 10 software (StatSoft®). To compare aphid survival in comparison with the control, Pearson's X^2 test (α<0.05) was applied. To compare the compounds in terms of concentration and nature, Fisher's least significant difference (LSD) test was applied (α<0.05). Daily fecundity was also studied using Fisher's LSD test (α<0.05).
The biological tests were carried out on Macrosiphum euphorbiae neonates less than 24 hours old. They are placed on artificial medium containing chaconine, solanine, solanidine, 100, 101 or 102.

[2] = test system: Macrosiphum euphorbiae adults; assay: Effects on adult survival (artificial medium feeding); conditions: for Percentage of adult survival: after 16 days of treatment
Method: as §1
(§5) For the tests on Macrosiphum euphorbiae adults, neonates (50 per experiment) resulting from synchronization are raised in petri dishes on leaves of Desiree variety potato plants for 10 days. Once the adult stage is reached, they are placed in PVC cages containing artificial medium alone (control experiment) or artificial medium supplemented with 0.002, 0.02 or 0.2 mM active compound.
as §2, §3, §4
The biological tests of compounds 100, 101 and 102 on Macrosiphum euphorbiae adults are presented in FIG. 2, and are compared to a control experiment.

[3] = test system: Macrosiphum euphorbiae reproduction; assay: Effects on reproduction (daily fecundity per aphid)
Method: as §5, §2, §4
Data regarding the number of larvae resulting from parthenogenesis can be used to calculate daily fecundity per aphid. The results are presented in FIG. 3, wherein the number 10 represents the control, the reference numbers 12, 14 and 16 represent the results of compound 100 at the concentrations of 0.002, 0.02 and 0.2 mM, respectively, the reference numbers 18, 20 and 22 represent the results of compound 101 at the concentrations of 0.002, 0.02 and 0.2 mM, respectively, the reference numbers 24, 26, and 28 represent the results of compound 102 at the concentrations of 0.002, 0.02 and 0.2 mM, respectively.

Row | SMILES | Percentage of larval survival ([1]; 0.002 mM in artificial medium) [a %] | Percentage of larval survival ([1]; 0.02 mM in artificial medium) | Percentage of larval survival ([1]; 0.2 mM in artificial medium) | Percentage of adult survival ([2]; 0.002 mM in artificial medium) [a %] | activity on adult survival in comparison with the control ([2]; 0.02 mM) | Percentage of adult survival ([2]; 0.02 mM in artificial medium) [b %] | activity on adult survival in comparison with the control ([2]; 0.2 mM) | Percentage of adult survival ([2]; 0.2 mM in artificial medium) | aphicide activity on larvae compared with 0.2 mM solanidine [1] | aphicide properties with respect to larvae compared with solanidine [1] | effect on reproduction in comparison with the control ([3]; 0.02 mM) | effect on reproduction in comparison with the control ([3]; 0.2 mM) | activity on adult survival in comparison with the control ([2]; 0.002 mM) | mortality at 200 µM ([2]; Macrosiphum euphorbiae, 0.2 mM, read-out: mortality rate of adults) [%]
1 | C[C@H]1CC[C@@H]2[C@@H](C)[C@H]3[C@H](C[C@H]4[C@@H]5CC=C6C[C@@H](O[C@@H]7O[C@H](CO)[C@H](O)[C@H](O[C@@H]8O[C@H](CO)[C@@H](O)[C@H](O)[C@H]8O)[C@H]7O[C@H]7O[C@@H](C)[C@H](O)[C@@H](O)[C@H]7O)CC[C@]6(C)[C@H]5CC[C@]34C)N2C1 [Solanine, solanine, reference compound] | 82 | 80a % | 64c % | – | – | – | – | – | – | – | – | – | – | –
2 | C[C@H]1CCC2[C@@H](C)C3C(CC4C5CC=C6C[C@@H](OCCCn7cc(CO[C@@H]8OC(CO)[C@H](O)C(O)C8O)nn7)CC[C@]6(C)C5CC[C@@]43C)N2C1 (stereo partly drawn) [Compound 101, 3-O-{3-[4-(β-D-galactopyranosyloxymethyl)-1,2,3-triazol-1-yl]propyl}solanidine] | 62 | 33% and 33b % | 24% and 24c % | 90 | drop in the survival rate | 73 | drop in the survival rate | 54c % | lower activity than 0.2 mM solanidine | stronger than with solanidine | significantly reduce reproduction | significantly reduce reproduction | – | –
3 | CC1O[C@@H](OCc2cn(CCCO[C@H]3CC[C@@]4(C)C(=CCC5C6CC7C([C@H](C)C8CC[C@H](C)CN78)[C@@]6(C)CCC54)C3)nn2)C(O)C(O)[C@H]1O (stereo partly drawn) [Compound 102, 3-O-{3-[4-(α-L-rhamnopyranosyloxymethyl)-1,2,3-triazol-1-yl]propyl}solanidine] | 84 | 32% and 32b % | 6% and 6d % | 95 | marked effect on the survival of adults | 67 | marked effect on the survival of adults | 7d % | lower activity than 0.2 mM solanidine | stronger than with solanidine | significantly reduce reproduction | significantly reduce reproduction | no significant aphicide activity | –
4 | C[C@H]1CCC2[C@@H](C)C3C(CC4C5CC=C6C[C@@H](OCCCn7cc(CO[C@@H]8OC(CO)[C@@H](O)C(O)C8O)nn7)CC[C@]6(C)C5CC[C@@]43C)N2C1 (stereo partly drawn) [Compound 100, 3-O-{3-[4-(β-D-glucopyranosyloxymethyl)-1,2,3-triazol-1-yl]propyl}solanidine] | 76 | 26% and 26b % | 22% and 22c % | 97 | no significant activity | 81 | notable effect | 46c % | lower activity than 0.2 mM solanidine | stronger than with solanidine | significantly reduce reproduction | significantly reduce reproduction | no significant activity | 54
5 | C[C@H]1CC[C@@H]2[C@@H](C)[C@H]3[C@H](C[C@H]4[C@@H]5CC=C6C[C@@H](O[C@@H]7O[C@H](CO)[C@H](O[C@@H]8O[C@@H](C)[C@H](O)[C@@H](O)[C@H]8O)[C@H](O)[C@@H]7O[C@@H]7O[C@@H](C)[C@@H](O)[C@@H](O)[C@H]7O)CC[C@]6(C)[C@H]5CC[C@]34C)N2C1 [Chaconine, chaconine, reference compound] | 72 | 70a % | 52b % | – | – | – | – | – | – | – | – | – | – | –
6 | C[C@H]1CC[C@@H]2[C@@H](C)[C@H]3[C@H](C[C@H]4[C@@H]5CC=C6C[C@@H](O)CC[C@]6(C)[C@H]5CC[C@]34C)N2C1 [Solanidine, solanidine] | 74 | 60d % | 52b % | – | – | – | – | – | – | – | – | – | – | –
